Common to all, as to assay type: cell-based
One experiment addresses T1, GIP-R (Homo sapiens, UniProt P48546).
T1 sequence (P48546 22-466): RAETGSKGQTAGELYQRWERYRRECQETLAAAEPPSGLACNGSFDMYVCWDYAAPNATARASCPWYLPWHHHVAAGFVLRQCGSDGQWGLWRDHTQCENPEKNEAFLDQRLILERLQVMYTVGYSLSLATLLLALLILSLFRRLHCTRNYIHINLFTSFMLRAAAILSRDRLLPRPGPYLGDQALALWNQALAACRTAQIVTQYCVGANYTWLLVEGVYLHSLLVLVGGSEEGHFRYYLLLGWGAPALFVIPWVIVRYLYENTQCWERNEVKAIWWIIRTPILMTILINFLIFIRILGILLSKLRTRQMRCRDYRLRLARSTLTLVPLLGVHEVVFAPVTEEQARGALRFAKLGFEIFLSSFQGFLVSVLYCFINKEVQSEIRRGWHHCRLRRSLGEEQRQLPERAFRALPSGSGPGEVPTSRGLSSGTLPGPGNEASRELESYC
The experiment is described as follows: HitHunter cAMP assay (GIP-R). Conditions: cAMP; for Emax: read-out: (Emax) GIP-R. The gist of the method:
(§1)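 cAMP accumulation read by luminescent HitHunter immunocompetition after 30 min room-temperature agonist stimulation. Agonists tested as 22-point twofold dilutions, in duplicate, on 10,000 cells/well in HBSS containing 625 μM IBMX, 10 mM HEPES and 0.2% BSA.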
(In general: Changes in cAMP serve as a functional read-out for many G protein-coupled receptors.)

Experiment [1] addresses T2, GLP-1R (Homo sapiens, UniProt P43220). The experiment in a line: PathHunter β-arrestin assay. The essentials:
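β-Arrestin recruitment measured by PathHunter enzyme-fragment luminescence, read after 3 h dark incubation at room temperature with detection solution. Beforehand, agonist in a 22-point 2-fold series was applied in duplicate for 90 min at 37 °C to 5,000 cells/well in BSA-containing (0.2%) medium.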

Experiment [2] has as its target T2, GLP-1R. The experiment in a line: HitHunter cAMP assay (GLP-1R). Conditions: cAMP; for Emax: read-out: (Emax) GLP-1R. The gist of the method:
as §1

Setting [3] is: Table 3A, read-out: EC50 GIP-R/nM.
Setting [4] is: PathHunter β-arrestin assay, read-out: β-arrestin activity EC50.
Setting [5] is: Table 3A, read-out: EC50 GLP-1R/nM.
Setting [6] is: Table 3, read-out: EC50 GIP-R/nM.
The mark [7] stands for this setting: Table 3, read-out: EC50 GLP-1R/nM.

Where two headings read alike, the source gives them in different places. Square brackets hold non-standard residues; d marks the D form. Peptide text beside a SMILES is read from it. * marks the point of attachment. X3 = O=C(CSCC(=O)*)NCCn1ccccc1=O; Aib = CC(C)(N)C(=O)O Where only a bound is given, the exact number is not on record here.

T2 sequence (P43220 24-463): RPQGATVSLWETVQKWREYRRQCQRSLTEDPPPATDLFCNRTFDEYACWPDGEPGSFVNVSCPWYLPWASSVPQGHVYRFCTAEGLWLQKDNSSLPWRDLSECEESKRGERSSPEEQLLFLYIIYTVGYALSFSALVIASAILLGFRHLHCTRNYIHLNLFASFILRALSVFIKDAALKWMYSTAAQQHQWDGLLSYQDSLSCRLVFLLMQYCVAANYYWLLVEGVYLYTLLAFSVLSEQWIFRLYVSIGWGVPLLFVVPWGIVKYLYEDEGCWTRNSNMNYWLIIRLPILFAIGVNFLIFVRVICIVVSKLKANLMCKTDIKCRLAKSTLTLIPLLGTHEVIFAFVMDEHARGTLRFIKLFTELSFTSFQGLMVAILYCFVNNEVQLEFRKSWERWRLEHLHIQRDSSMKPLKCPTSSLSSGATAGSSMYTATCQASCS

As usually defined, the Emax is the maximal effect, on the per cent scale that the assay sets. Regarding `CCCCCCCCCCCCCCCC(=O)N[C@@H](CCC(=O)NCCCC[C@H](NC(=O)[C@H](CO)NC(=O)[C@@H]1CCCN1C(=O)[C@@H]1CCCN1C(=O)[C@@H]1CCCN1C(=O)[C@H](C)NC(=O)CNC(=O)[C@H](CO)NC(=O)[C@H](CO)NC(=O)[C@@H]1CCCN1C(=O)CNC(=O)CNC(=O)[C@H](C)NC(=O)[C@H](CC(C)C)NC(=O)[C@H](CC(C)C)NC(=O)[C@H](Cc1c[nH]c2ccccc12)NC(=O)[C@H](CC(N)=O)NC(=O)[C@@H](NC(=O)[C@H](Cc1ccccc1)NC(=O)[C@H](CCC(=O)O)NC(=O)C(C)(C)NC(=O)[C@H](C)NC(=O)[C@H](C)NC(=O)[C@H](CCC(N)=O)NC(=O)[C@H](CCCCN)NC(=O)[C@H](CC(=O)O)NC(=O)[C@H](CC(C)C)NC(=O)[C@H](Cc1ccc(O)cc1)NC(=O)[C@@H](NC(=O)[C@H](CO)NC(=O)[C@H](Cc1ccc(O)cc1)NC(=O)[C@H](CC(=O)O)NC(=O)[C@H](CO)NC(=O)[C@@H](NC(=O)[C@H](Cc1ccccc1)NC(=O)[C@@H](NC(=O)CNC(=O)[C@H](CCC(=O)O)NC(=O)CC(C)(C)C(=O)NCCN1CCCCC1=O)[C@@H](C)O)[C@@H](C)O)[C@@H](C)CC)C(C)C)C(N)=O)C(=O)O` [Compound 204], the Emax on GIP-R (Table 3A) came out at 98%. For the same compound, the values for the EC50 at GIP-R (setting [3]), on GLP-1R [1] (setting [4]) and at GLP-1R [2] (setting [5]) were 10 to 100 nM, 20 to 1000 nM and less than 0.1 nM, respectively.

With `CCCCCCCCCCCCCCCC(=O)N[C@@H](CCC(=O)NCCCC[C@H](NC(=O)[C@H](CO)NC(=O)[C@@H]1CCCN1C(=O)[C@@H]1CCCN1C(=O)[C@@H]1CCCN1C(=O)[C@H](C)NC(=O)CNC(=O)[C@H](CO)NC(=O)[C@H](CO)NC(=O)[C@@H]1CCCN1C(=O)CNC(=O)CNC(=O)[C@H](C)NC(=O)[C@H](CC(C)C)NC(=O)[C@H](CC(C)C)NC(=O)[C@H](Cc1c[nH]c2ccccc12)NC(=O)[C@H](CC(N)=O)NC(=O)[C@@H](NC(=O)[C@H](Cc1ccccc1)NC(=O)[C@H](CCC(=O)O)NC(=O)C(C)(C)NC(=O)[C@H](C)NC(=O)[C@H](C)NC(=O)[C@H](CCC(N)=O)NC(=O)[C@H](CCCCN)NC(=O)[C@H](CC(=O)O)NC(=O)[C@H](CC(C)C)NC(=O)[C@H](Cc1ccc(O)cc1)NC(=O)[C@@H](NC(=O)[C@H](CO)NC(=O)[C@H](Cc1ccc(O)cc1)NC(=O)[C@H](CC(=O)O)NC(=O)[C@H](CO)NC(=O)[C@@H](NC(=O)[C@H](Cc1ccccc1)NC(=O)[C@@H](NC(=O)CNC(=O)[C@H](CCC(=O)O)NC(=O)CCNC(=O)CCN1CCCCC1=O)[C@@H](C)O)[C@@H](C)O)[C@@H](C)CC)C(C)C)C(N)=O)C(=O)O` [Compound 9], the Emax came out at 48% on GIP-R (Table 3), 48% at GIP-R (Table 3A), 100% at GLP-1R [2] (Table 3) and 100% at GLP-1R [2] (Table 3A). Further, the EC50 is 1 to 10 nM on GIP-R (setting [6]); 1 to 10 nM at GIP-R (setting [3]); more than 1000 nM at GLP-1R [1] (setting [4]); less than 0.1 nM at GLP-1R [2] (setting [7]); less than 0.1 nM on GLP-1R [2] (setting [5]).

On to `CCCCCCCCCCCCCCCC(=O)N[C@@H](CCC(=O)NCCCC[C@H](NC(=O)[C@H](CO)NC(=O)[C@@H]1CCCN1C(=O)[C@@H]1CCCN1C(=O)[C@@H]1CCCN1C(=O)[C@H](C)NC(=O)CNC(=O)[C@H](CO)NC(=O)[C@H](CO)NC(=O)[C@@H]1CCCN1C(=O)CNC(=O)CNC(=O)[C@H](C)NC(=O)[C@H](CC(C)C)NC(=O)[C@H](CC(C)C)NC(=O)[C@H](Cc1c[nH]c2ccccc12)NC(=O)[C@H](CC(N)=O)NC(=O)[C@@H](NC(=O)[C@H](Cc1ccccc1)NC(=O)[C@H](CCC(=O)O)NC(=O)C(C)(C)NC(=O)[C@H](C)NC(=O)[C@H](C)NC(=O)[C@H](CCC(N)=O)NC(=O)[C@H](CCCCN)NC(=O)[C@H](CC(=O)O)NC(=O)[C@H](CC(C)C)NC(=O)[C@H](Cc1ccc(O)cc1)NC(=O)[C@@H](NC(=O)[C@H](CO)NC(=O)[C@H](Cc1ccc(O)cc1)NC(=O)[C@H](CC(=O)O)NC(=O)[C@H](CO)NC(=O)[C@@H](NC(=O)[C@H](Cc1ccccc1)NC(=O)[C@@H](NC(=O)CNC(=O)[C@H](CCC(=O)O)NC(=O)CSCC(=O)NCCN1CCC[C@H](O)C1=O)[C@@H](C)O)[C@@H](C)O)[C@@H](C)CC)C(C)C)C(N)=O)C(=O)O` [Compound 21], for which the EC50 at GIP-R (EC50 GIP-R/nM, Table 3) was 1 to 10 nM; on GIP-R (EC50 GIP-R/nM, Table 3A), 10 to 100 nM; at GLP-1R [1], more than 1000 nM; on GLP-1R [2] (EC50 GLP-1R/nM, Table 3), less than 0.1 nM; at GLP-1R [2] (EC50 GLP-1R/nM, Table 3A), less than 0.1 nM. In addition, the Emax on GIP-R (Table 3) was found to be 20%; at GIP-R (Table 3A), 20%; at GLP-1R [2] (Table 3), 95%; on GLP-1R [2] (Table 3A) it was 95%.

Consider `CC[C@H](C)[C@H](NC(=O)[C@H](CO)NC(=O)[C@H](Cc1ccc(O)cc1)NC(=O)[C@H](CC(=O)O)NC(=O)[C@H](CO)NC(=O)[C@@H](NC(=O)[C@H](Cc1ccccc1)NC(=O)[C@@H](NC(=O)CNC(=O)[C@H](CCC(=O)O)NC(=O)CCNC(=O)CCCN1C(=O)CSC1=O)[C@@H](C)O)[C@@H](C)O)C(=O)N[C@@H](Cc1ccc(O)cc1)C(=O)N[C@@H](CC(C)C)C(=O)N[C@@H](CC(=O)O)C(=O)N[C@@H](CCCCN)C(=O)N[C@@H](CCC(N)=O)C(=O)N[C@@H](C)C(=O)N[C@@H](C)C(=O)NC(C)(C)C(=O)N[C@@H](CCC(=O)O)C(=O)N[C@@H](Cc1ccccc1)C(=O)N[C@H](C(=O)N[C@@H](CC(N)=O)C(=O)N[C@@H](Cc1c[nH]c2ccccc12)C(=O)N[C@@H](CC(C)C)C(=O)N[C@@H](CC(C)C)C(=O)N[C@@H](C)C(=O)NCC(=O)NCC(=O)N1CCC[C@H]1C(=O)N[C@@H](CO)C(=O)N[C@@H](CO)C(=O)NCC(=O)N[C@@H](C)C(=O)N1CCC[C@H]1C(=O)N1CCC[C@H]1C(=O)N1CCC[C@H]1C(=O)N[C@@H](CO)C(=O)N[C@@H](CCCCN)C(N)=O)C(C)C` [Compound 172], for which the EC50 on GIP-R (EC50 GIP-R/nM, Table 3) is 10 to 100 nM; on GIP-R (EC50 GIP-R/nM, Table 3A) it was 10 to 100 nM; at GLP-1R [1], more than 1000 nM; at GLP-1R [2] (EC50 GLP-1R/nM, Table 3) it was 1 to 10 nM; on GLP-1R [2] (EC50 GLP-1R/nM, Table 3A), 1 to 10 nM. Further, the Emax is 63 to 71% at GIP-R (Table 3), 63 to 71% on GIP-R (Table 3A), 98 to 101% on GLP-1R [2] (Table 3) and 98 to 101% on GLP-1R [2] (Table 3A).

Regarding `CC[C@H](C)[C@H](NC(=O)[C@H](CO)NC(=O)[C@H](Cc1ccc(O)cc1)NC(=O)[C@H](CC(=O)O)NC(=O)[C@H](CO)NC(=O)[C@@H](NC(=O)[C@H](Cc1ccccc1)NC(=O)[C@@H](NC(=O)CNC(=O)[C@H](CCC(=O)O)NC(=O)CSCC(=O)NCCn1ccccc1=O)[C@@H](C)O)[C@@H](C)O)C(=O)N[C@@H](Cc1ccc(O)cc1)C(=O)N[C@@H](CC(C)C)C(=O)N[C@@H](CC(=O)O)C(=O)N[C@@H](CCCCN)C(=O)N[C@@H](CCC(N)=O)C(=O)N[C@@H](C)C(=O)N[C@@H](C)C(=O)NC(C)(C)C(=O)N[C@@H](CCC(=O)O)C(=O)N[C@@H](Cc1ccccc1)C(=O)N[C@H](C(=O)N[C@@H](CC(N)=O)C(=O)N[C@@H](Cc1c[nH]c2ccccc12)C(=O)N[C@@H](CC(C)C)C(=O)N[C@@H](CC(C)C)C(=O)N[C@@H](C)C(=O)NCC(=O)NCC(=O)N1CCC[C@H]1C(=O)N[C@@H](CO)C(=O)N[C@@H](CO)C(=O)NCC(=O)N[C@@H](C)C(=O)N1CCC[C@H]1C(=O)N1CCC[C@H]1C(=O)N1CCC[C@H]1C(=O)N[C@@H](CO)C(=O)N[C@@H](CCCCN)C(N)=O)[C@@H](C)CC` [Compound 118] (X3-EGTFTSDYSIYLDKQAA[Aib]EFINWLLAGGPSSGAPPPSK-NH2), the Emax at GIP-R (Table 3) was found to be 35%; on GIP-R (Table 3A) it was 35%; at GLP-1R [2] (Table 3), 95%; on GLP-1R [2] (Table 3A) it was 95%. Moreover, the EC50 on GIP-R (setting [6]) is 1 to 10 nM; at GIP-R (setting [3]), 1 to 10 nM; at GLP-1R [1] (setting [4]), more than 1000 nM; at GLP-1R [2] (setting [7]), less than 0.1 nM; on GLP-1R [2] (setting [5]), less than 0.1 nM.
